Values of other authors as cited in patent US7271001B2, “Method for mitochondrial targeting of p53” (The Research Foundation of State University of New York, priority 2004, dated 2007).

What was measured:
[1] = test system: tumor-derived p53 mutant proteins; settings: cell-based assays in vitro
tumor xenografts = tumor xenografts in nude mice

SMILES: COc1ccc(/C=C/c2nc(NCCCN(C)C)c3ccccc3n2)cc1 [CP-31398]
- restoration of transcriptional p53 function [1]: can restore transcriptional p53 function
- tumor growth (tumor xenografts): slow tumor growth

SMILES: O=C1C2CCN(CC2)C1(CO)CO [PRIMA-1]
- restoration of transcriptional p53 function [1]: can restore transcriptional p53 function
- tumor growth (tumor xenografts): slow tumor growth
